In US10532987B2, “Compounds and methods for inducing browning of white adipose tissue” (GUANGZHOU INSTITUTES OF BIOMEDICINE AND HEALTH, CHINESE …, priority 2015, dated 2020):

Columns and labels:
Ucp1 = experiment: UCP1 luciferase assay (Ucp1 up-regulation in differentiated inguinal adipocytes of Ucp1-luciferase knock-in mice); format: cell-based; details: Mus musculus, Adipocyte, 48 h; at 3 μM; 2 days treatment; luciferase activity; read-out: Ucp1 activation fold/corresponding concentration
Experimental: TEST EXAMPLE 1 UCP1 Luciferase Assay
Evaluating Compounds that Induce Ucp1 Up-Regulation
Ucp1-luciferase knock-in mice will be housed in cages and fed on standard chow diets (the detailed procedures please see reference 14). The 8-week-old mice will be killed by the cervical dislocation and put into 75% alcohol for 5 minutes. The inguinal adipose tissue will be dissected out and transferred to the three 10-cm petri dishes and washed with PBS for three times. The adipose tissue will be dissected and minced on a 10-cm petri dish for several minutes and then pipetted into 20 ml 0.1% collagenase solution in 50 ml conical tubes and digested at 37° C. for 1 hour. Next, 20 ml culture medium will be added to terminate the digestion and centrifuged for 10 minutes at 1000 rpm respectively. The supernatants will be removed and the pellets re-suspended in 10 mL culture medium and plated into 10-cm plates. The cells will be left to adhere to the plates overnight and the culture medium will be changed every other day. The confluent cells will be trypsinized, counted and plated to 24-well plate (5×10^4 cells/well). The cells will be washed and re-fed the next day (as day −2). Two days later (day 0), the cells will usually become confluent and be induced to differentiate with MDIR medium. On day 2, the medium will be changed to IR medium and re-fed every 2 days. Complete differentiation is usually achieved by day 10. On day 10, the medium will be changed to the culture medium of 10% FBS/DMEM with indicated drugs along with the positive and negative controls for 2 days. The media will be removed and the cells washed with 1 ml PBS per well three times. Then 100 μl lysis buffer will be used to lyse the cells at 4° C. for 1 hour. 30 μl culture medium, 30 μl cell lysates and 60 μl Steady-Glo® Reagent were added to a well of 96-well-plate and the luminescence will be measured using a luminometer. The protein concentration will be determined using 20 μl cell lysates and specific activity of luciferase will be tabulated and data analyzed.

white adipose tissue = experiment: High fat diet induced obesity mouse model; hematoxylin and eosin staining and UCP1 immunochemistry of adipose tissue; format: in vivo, mice; details: 50 mg/kg daily gavage, compared with control group
Experimental: 8-week-old male mice (57BL/6J) were housed in metabolism cages and maintained on a 12 h lightdark cycle at 23° C. and fed high fat diet (HFD) (21.9 kJ/g, 60% of energy as fat, 20% of energy as protein, 20% of energy as carbohydrate; D12492; Research Diet, New Brunswick, N.J., USA) for 8 weeks. Then, diets induced obese mice were randomized into two groups according to glucose levels and body weight and gavaged with daily indicated drugs (50 mg/kg) or vehicle. Food intake and body weight was measured weekly. All experiments with animals were approved by the Animal Care and Use Committee of Guangzhou Institute of Biomedicine and Health, Chinese Academy of Sciences.
Hematoxylin and eosin staining was performed as the standard protocol (see reference 15). As to the results, please see FIG. 1 (left panel) using compound 1 as the test compound.
Wash sections in dH2O three times for 5 minutes each. Incubate sections in 3% hydrogen peroxide for 10 minutes. Wash sections in dH2O twice for 5 minutes each, and then wash sections in wash buffer for 5 minutes. Block each section with 100-400 μl blocking solution for 1 hour at room temperature. Remove blocking solution and add 100-400 μl primary UCP1 antibody to each section. Incubate overnight at 4° C. Remove antibody solution and wash sections in wash buffer three times for 5 minutes each. […]

In the case of COc1ccc(-c2csc(Nc3ccccn3)n2)cc1OC [Compound 1, 4-(3,4-dimethoxyphenyl)-N-(pyridin-2-yl)thiazol-2-amine], the fold induction at 3 µM (Ucp1) is reported as 5.2, the “browning of adipose tissue (hematoxylin and eosin staining and UCP1 immunochemistry)” value (white adipose tissue; 16-week-old obese mice (57BL/6J) induced by high fat diet for 8 weeks) is reported as “promotes browning of adipose tissue” and the “adipose tissue cell size and cell number” value (white adipose tissue; 16-week-old obese mice induced by high fat diet for 8 weeks) is reported as “reduced cell size and increased cell number”.
